Test results taken from publication PMC6009888, “Design, synthesis, and pharmacological evaluation of 2-amino-5-nitrothiazole derived semicarbazones as dual inhibitors of monoamine oxidase and cholinesterase: effect of the size of aryl binding site” (Journal of Enzyme Inhibition and Medicinal Chemistry, 2017).
Values joined by “and” are separate entries in the source; they are usually repeats but may differ in a detail not shown here. Equal values may be shown once. Read-outs that look alike come from different tables or passages of the source.

Assays:
[1] = In vitro DPPH radical scavenging assay; settings: test sample 100 µg/ml, 100 µM methanolic DPPH, 30 min, 517 nm
Experimental: Antioxidant activity of the synthesised compounds (10 mg/ml) was evaluated using the radical scavenging capability against the stable free radical, 2,2′-diphenyl-1-picryl hydrazyl (DPPH·). The DPPH· scavenging capability was determined using UV based spectrophotometric assay. About 200 µl of the test sample solution (100 µg/ml) was added to 4 ml of 100 µM methanolic DPPH. […] Ascorbic acid (100 µg/ml) was used as reference. The percentage inhibition of DPPH activity was estimated using the formula: Percent (%) inhibition of DPPH activity = Acontrol-Asample/Acontrol×100 where Acontrol is the absorbance of DPPH· in methanol without an antioxidant and Asample is the absorbance of DPPH· in the presence of an antioxidant.

MAO-A = molecular target: T1, MAO-A (Rattus norvegicus, UniProt P21396); test: In vitro MAO-A inhibition assay (rat brain mitochondria, serotonin substrate); format: biochemical; settings: rat brain mitochondria, serotonin substrate, mean ± SEM, triplicate
T1 construct: employing crude rat brain mitochondrial suspension; from tissue; host or cells: brain mitochondria of adult Wistar rats
T1 sequence (P21396 1-526): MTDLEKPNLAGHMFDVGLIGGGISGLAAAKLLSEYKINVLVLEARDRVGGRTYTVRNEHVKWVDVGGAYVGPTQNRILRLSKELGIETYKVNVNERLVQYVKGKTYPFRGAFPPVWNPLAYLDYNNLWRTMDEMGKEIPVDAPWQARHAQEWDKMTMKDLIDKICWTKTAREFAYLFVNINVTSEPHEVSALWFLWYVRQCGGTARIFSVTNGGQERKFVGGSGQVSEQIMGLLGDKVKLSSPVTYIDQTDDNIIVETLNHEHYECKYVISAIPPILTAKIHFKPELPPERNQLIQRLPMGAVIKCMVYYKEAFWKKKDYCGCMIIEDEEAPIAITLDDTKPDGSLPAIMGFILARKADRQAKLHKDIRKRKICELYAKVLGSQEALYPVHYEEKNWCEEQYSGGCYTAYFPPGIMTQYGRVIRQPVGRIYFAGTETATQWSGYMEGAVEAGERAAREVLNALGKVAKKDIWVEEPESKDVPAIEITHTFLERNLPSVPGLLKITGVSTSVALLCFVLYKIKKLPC
Experimental: (§1) Rat brain mitochondria were used as a source of MAO isoforms. All operations were carried out at 4 °C[50]. Male and female adult Wistar rats weighing 200–220 g were decapitated. All brains were rapidly removed and homogenised with a Potter–Elvehjem homogeniser in cold 0.32 M sucrose and 50 mM Tris-HCl, pH 8.2 (10:1, v/w). The homogenate was centrifuged twice at 1000 g for 5 min at 4 °C. The resulting supernatant was centrifuged at 20,000 g for 20 min. The mitochondrial pellet obtained was suspended in 100 mM sodium phosphate buffer, pH 7.4 (4:1, v/w), fractionated in plastic vials to 500 µl samples and stored at −80 °C. Before use, mitochondria were diluted with 100 mM sodium phosphate buffer to give a working solution of 0.80 mg of protein per millilitre.
(§2) The experiments were carried out under all the suitable laboratory conditions. […] An aliquot was made to contain mixture of 55 µl mitochondrial suspension (0.80 mg of protein/ml), 90 µl 50 mM Tris-HCl buffer, pH 8.2 and 30 µl solubilising solution (control or inhibitor solution at five different concentrations). The reaction was initiated by adding 25 µl of serotonin (4 mM, substrate for MAO-A) and 25 µl benzylamine (0.1 M, substrate for MAO-B) for the determination of MAO-A and MAO-B activity, respectively. The mixture was incubated at 37 °C for 30 min and the reaction was stopped by the addition of 50 µl of 1 N HCl. The absorbance associated with the production of 5-hydroxyindolacetic acid was measured at 280 nm for the estimation of MAO-A while for MAO-B estimation, the absorbance was measured at 250 nm due to the formation of benzaldehyde. All the assays were performed in triplicate. Control experiments were carried out without inhibitor and blanks were run without mitochondrial suspension.
(§3) Data are expressed as mean ± standard error mean (SEM) of experiments performed in triplicate.
(§4) 0, 15, 30 and 60 min at 37 °C in Tris-HCl buffer (50 mM, pH 8.2). […] The reactions were further incubated at 37 °C for a further 15 min and the residual enzyme activities were measured and the bar graphs were constructed. All measurements were carried out in triplicate and are expressed as mean ± SEM.

rat brain AChE = molecular target: T2, rat brain AChE (Rattus norvegicus, UniProt P37136); test: biochemical; format: biochemical; settings: for IC50: rat brain AChE, ACTI substrate, mean ± SEM, triplicate
T2 construct: the resulting clear supernatants obtained were used as enzyme sources; from tissue; host or cells: rat brain cortex homogenate, 10,000 g supernatant
Experimental: Rat brain was used as a source of AChE enzyme. Rats were separately decapitated, the brain cortices quickly removed, weighed and homogenised in cold 10 mM Tris-HCl buffer, pH 7.2, containing 160 mM sucrose. The homogenates were centrifuged at 10,000 g for 10 min at 4 °C, and the resulting clear supernatants obtained were used as enzyme sources that were divided into aliquots and stored at −20 °C.
About 30 µl of enzyme sample (AChE) was added to 60 µl of 20 mM sodium phosphate buffer (pH 7.4) and were incubated in the presence of 30 µl of 10 mM DTNB solution with different concentrations of the test compounds. The enzyme reaction was initiated by the addition of 30 µl of 0.8 mM ACTI. The mixtures were incubated for 15 min at 25 °C. […] Control experiments were carried out without inhibitor, and blanks were run without AChE enzyme. All the assays were performed in triplicate. IC50 values were determined using the GraphPad Prism 5.0 (San Diego, CA) and the results were expressed as mean ± SEM.
as §4, with “25” for “37”, “sodium phosphate” for “Tris-HCl”, “(20” for “(50”, “7.4) and DTNB solution (10 mM).” for “8.2).”, “reaction was” for “reactions were”

MAO-B = molecular target: T3, MAO-B (Rattus norvegicus, UniProt P19643); test: biochemical; settings: for SI (selectivity index for MAO-B): ratio of experimental IC50(MAO-A)/IC50(MAO-B)
T3 construct: employing crude rat brain mitochondrial suspension; from tissue; host or cells: brain mitochondria of adult Wistar rats
T3 sequence (P19643 1-520): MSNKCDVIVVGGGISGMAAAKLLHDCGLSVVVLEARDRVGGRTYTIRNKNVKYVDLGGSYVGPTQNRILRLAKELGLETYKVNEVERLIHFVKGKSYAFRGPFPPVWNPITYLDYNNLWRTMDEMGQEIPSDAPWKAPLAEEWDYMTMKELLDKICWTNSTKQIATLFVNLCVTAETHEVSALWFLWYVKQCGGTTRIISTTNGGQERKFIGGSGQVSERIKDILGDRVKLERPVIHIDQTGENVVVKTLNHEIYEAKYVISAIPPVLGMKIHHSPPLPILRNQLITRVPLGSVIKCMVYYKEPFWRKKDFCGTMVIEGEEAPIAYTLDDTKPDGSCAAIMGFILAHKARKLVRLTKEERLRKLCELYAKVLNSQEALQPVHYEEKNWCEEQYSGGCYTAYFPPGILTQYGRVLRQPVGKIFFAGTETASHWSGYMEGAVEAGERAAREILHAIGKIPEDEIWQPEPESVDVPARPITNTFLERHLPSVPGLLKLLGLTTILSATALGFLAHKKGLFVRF
Experimental: as §1, §2, §3, §4

mice = test: Neurotoxicity screening (rotarod test); format: in vivo; settings: for Neurotoxicity (animals that exhibit toxicity / animals tested): 30 mg/kg i.p.
Experimental: The neurotoxicity screening was undertaken according to the method followed by the National Institute of Health, using their reported procedures[55]^,[56]. Male albino mice (CF-1 strain or Swiss, 18–25 g) were used as experimental animals. The animals were housed in metabolic cages, and allowed free access to food and water. The test compounds were suspended in 0.5% methylcellulose/water mixture or in polyethylene glycol (PEG 200).
Minimal motor impairment was measured in mice by the rotarod test. The mice were trained to stay on an accelerating rotarod that rotates at six revolutions per minute. The rod diameter was 3.2 cm. Trained animals were given i.p. injection of the selected inhibitors at a dose of 30 mg/kg. Neurotoxicity was indicated by the inability of the animal to maintain equilibrium on the rod for at least 1 min in each of the three trials.

[2] = read-out: MAO-A In vitro IC50 (µM) ± SEM
[3] = read-out: AChE In vitro IC50 (µM) ± SEM

T2 sequence (P37136 32-614): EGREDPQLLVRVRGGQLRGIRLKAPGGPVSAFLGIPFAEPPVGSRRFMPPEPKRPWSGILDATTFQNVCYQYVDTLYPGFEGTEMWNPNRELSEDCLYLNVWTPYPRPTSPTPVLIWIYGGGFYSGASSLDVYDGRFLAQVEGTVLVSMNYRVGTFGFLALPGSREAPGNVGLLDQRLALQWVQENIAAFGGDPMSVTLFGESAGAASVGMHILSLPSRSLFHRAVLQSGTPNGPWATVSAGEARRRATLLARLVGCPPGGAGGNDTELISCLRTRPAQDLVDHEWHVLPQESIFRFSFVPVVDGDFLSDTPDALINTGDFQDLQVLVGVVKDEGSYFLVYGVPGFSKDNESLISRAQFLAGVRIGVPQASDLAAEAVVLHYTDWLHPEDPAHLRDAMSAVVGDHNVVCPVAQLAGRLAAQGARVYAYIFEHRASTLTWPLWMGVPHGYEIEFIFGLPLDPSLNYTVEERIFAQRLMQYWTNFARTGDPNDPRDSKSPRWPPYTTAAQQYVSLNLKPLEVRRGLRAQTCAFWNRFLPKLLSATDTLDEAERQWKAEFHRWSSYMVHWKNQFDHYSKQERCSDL

SMILES | % inhibition of DPPH activity [1] [%] | logP (physchem; octanol/water) | IC50 (MAO-A; [2]) | IC50 (rat brain AChE; [3]) [µM] | IC50 (MAO-B) [µM] | SI (selectivity index for MAO-B) (MAO-B) | Neurotoxicity (animals that exhibit toxicity / animals tested) (mice; 0.5 h) | Neurotoxicity (animals that exhibit toxicity / animals tested) (mice; 1 h) | Neurotoxicity (animals that exhibit toxicity / animals tested) (mice; 2 h) | Neurotoxicity (animals that exhibit toxicity / animals tested) (mice; 4 h) | also measured
O=C1O[C@H]([C@@H](O)CO)C(O)=C1O [Ascorbic acid, reference compound] | 61.24 | – | – | – | – | – | – | – | – | – | –
CC(=NNC(=O)Nc1ncc([N+](=O)[O-])s1)c1ccc(F)cc1 [Compound 6, 1-(1-(4-Fluorophenyl)ethylidene)-4-(5-nitrothiazol-2-yl)semicarbazide] | 30.43 | 1.3 | > 100 µM and 46100 µM | 468 ± 4.98 | 19.89 ± 0.032 | 2316.04 | – | – | – | – | AChE: fold decrease in activity versus bromo substitution (compound 4) (rat brain AChE; halogen at carbimino terminal phenyl ring): > 1000 fold
CC(=NNC(=O)Nc1ncc([N+](=O)[O-])s1)c1ccc(O)cc1 [Compound 7, 1-(1-(4-Hydroxyphenyl)ethylidene)-4-(5-nitrothiazol-2-yl)semicarbazide] | – | 1.2 | 5899 ± 9.84 µM | 12.7 ± 0.62 | 14.75 ± 0.018 | 399.93 | 0/4 | 0/4 | 0/4 | 0/4 | AChE: fold greater potency relative to compound 11 (rat brain AChE; ratio of IC50 values): ~46 fold; MAO-B: fold greater potency relative to compound 11 (MAO-B; ratio of IC50 values): ~16.37 fold
CC(=NNC(=O)Nc1ncc([N+](=O)[O-])s1)c1ccc([N+](=O)[O-])cc1 [Compound 8, 1-(1-(4-Nitrophenyl)ethylidene)-4-(5-nitrothiazol-2-yl)semicarbazide] | 11.60 | – | – | – | 23.88 ± 0.022 | 114.86 | – | – | – | – | logP (physchem): 1.4; IC50 (MAO-A; MAO-A In vitro IC50 (µM) ± SEM): 2743 ± 3.65 µM; IC50 (rat brain AChE; AChE In vitro IC50 (µM) ± SEM): 45.5 ± 1.36 µM
O=C(NN=C(CBr)c1ccc(Br)cc1)Nc1ncc([N+](=O)[O-])s1 [Compound 9, 1-(2-Bromo-1-(4-bromophenyl)ethylidene)-4-(5-nitrothiazol-2-yl)semicarbazide] | 35.89 | – | 314 ± 1.89 µM | 3.926 ± 0.014 | 0.313 ± 0.007 | 1003.19 | 2/4 | 1/4 | 0/4 | 0/4 | Neurotoxicity (verdict in words) (mice; 30 mg/kg, relative to phenytoin): moderately neurotoxic
O=C(NN=Cc1ccc(Br)cc1)Nc1ncc([N+](=O)[O-])s1 [Compound 10, 1-(4-Bromobenzylidene)-4-(5-nitrothiazol-2-yl)semicarbazide] | – | 2.5 | 5153 ± 8.82 µM | 96.4 ± 2.81 | 5.451 ± 0.009 | 945.33 | – | – | – | – | –
O=C(NN=Cc1ccc(O)cc1)Nc1ncc([N+](=O)[O-])s1 [Compound 11, 1-(4-Hydroxybenzylidene)-4-(5-nitrothiazol-2-yl)semicarbazide] | – | 1.6 | 11340 ± 11.7 µM | 584 ± 7.92 | 241.5 ± 2.31 | 46.96 | – | – | – | – | –
O=C(NN=Cc1c(Cl)cccc1Cl)Nc1ncc([N+](=O)[O-])s1 [Compound 14, 1-(2,6-Dichlorobenzylidene)-4-(5-nitrothiazol-2-yl)semicarbazide] | 55.29 | 3.1 | 13910 ± 19.7 µM | 10.7 ± 0.56 | 16.9 ± 0.37 | 821.43 | – | – | – | – | MAO-B: fold less active than compound 13 (MAO-B; isomeric dichloro derivatives): ~4.85 fold
COc1ccc(OC)c(C=NNC(=O)Nc2ncc([N+](=O)[O-])s2)c1 [Compound 15, 1-(2,5-Dimethoxybenzylidene)-4-(5-nitrothiazol-2-yl)semicarbazide] | 10.58 | – | > 100 µM and 55000 µM | 872 ± 4.38 | 11.1 ± 0.19 | 4945.91 | – | – | – | – | –
O=C1NC(=O)C(c2ccccc2)(c2ccccc2)N1 [Phenytoin, reference compound] | – | – | – | – | – | – | 0/4 | 0/4 | 0/4 | 0/2 | –
